According to ChEMBL document CHEMBL1155682, “Cernuosides A and B, two sucrase inhibitors from Pulsatilla cernua” (J Nat Prod, 2000):

Target: Sucrase-isomaltase, intestinal (Rattus norvegicus, UniProt P23739)
Experiment: Inhibition of rat intestinal sucrase

Chain of Sucrase-isomaltase, intestinal (P23739 1-1013 limits assumed): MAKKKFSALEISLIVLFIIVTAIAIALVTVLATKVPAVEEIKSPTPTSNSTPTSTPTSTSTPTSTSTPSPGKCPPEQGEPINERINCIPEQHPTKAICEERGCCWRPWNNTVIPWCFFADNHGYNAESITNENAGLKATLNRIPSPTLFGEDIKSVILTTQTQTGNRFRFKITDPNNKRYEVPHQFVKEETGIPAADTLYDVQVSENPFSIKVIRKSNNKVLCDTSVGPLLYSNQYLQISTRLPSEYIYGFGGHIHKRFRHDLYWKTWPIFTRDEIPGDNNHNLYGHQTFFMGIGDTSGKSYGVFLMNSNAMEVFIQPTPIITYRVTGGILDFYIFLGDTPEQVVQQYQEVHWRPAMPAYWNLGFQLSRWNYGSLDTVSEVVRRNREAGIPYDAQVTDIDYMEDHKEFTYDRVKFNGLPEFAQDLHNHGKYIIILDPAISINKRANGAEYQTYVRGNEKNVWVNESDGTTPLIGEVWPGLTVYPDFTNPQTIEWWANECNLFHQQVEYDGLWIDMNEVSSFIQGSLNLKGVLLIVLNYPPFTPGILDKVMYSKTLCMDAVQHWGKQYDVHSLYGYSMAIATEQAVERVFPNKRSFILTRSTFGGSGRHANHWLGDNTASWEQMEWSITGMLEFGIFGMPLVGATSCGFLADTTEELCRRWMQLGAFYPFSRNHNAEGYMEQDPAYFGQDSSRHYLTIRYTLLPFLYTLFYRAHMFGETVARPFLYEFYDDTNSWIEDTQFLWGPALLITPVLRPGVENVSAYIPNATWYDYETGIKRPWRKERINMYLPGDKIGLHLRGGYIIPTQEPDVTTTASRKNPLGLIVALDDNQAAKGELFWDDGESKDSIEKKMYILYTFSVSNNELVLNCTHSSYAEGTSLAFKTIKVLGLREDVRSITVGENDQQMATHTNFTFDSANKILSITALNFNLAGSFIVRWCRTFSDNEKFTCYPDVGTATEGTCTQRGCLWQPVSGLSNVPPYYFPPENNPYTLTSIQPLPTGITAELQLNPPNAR
Chain of Sucrase-isomaltase, intestinal (P23739 1014-1841 limits assumed): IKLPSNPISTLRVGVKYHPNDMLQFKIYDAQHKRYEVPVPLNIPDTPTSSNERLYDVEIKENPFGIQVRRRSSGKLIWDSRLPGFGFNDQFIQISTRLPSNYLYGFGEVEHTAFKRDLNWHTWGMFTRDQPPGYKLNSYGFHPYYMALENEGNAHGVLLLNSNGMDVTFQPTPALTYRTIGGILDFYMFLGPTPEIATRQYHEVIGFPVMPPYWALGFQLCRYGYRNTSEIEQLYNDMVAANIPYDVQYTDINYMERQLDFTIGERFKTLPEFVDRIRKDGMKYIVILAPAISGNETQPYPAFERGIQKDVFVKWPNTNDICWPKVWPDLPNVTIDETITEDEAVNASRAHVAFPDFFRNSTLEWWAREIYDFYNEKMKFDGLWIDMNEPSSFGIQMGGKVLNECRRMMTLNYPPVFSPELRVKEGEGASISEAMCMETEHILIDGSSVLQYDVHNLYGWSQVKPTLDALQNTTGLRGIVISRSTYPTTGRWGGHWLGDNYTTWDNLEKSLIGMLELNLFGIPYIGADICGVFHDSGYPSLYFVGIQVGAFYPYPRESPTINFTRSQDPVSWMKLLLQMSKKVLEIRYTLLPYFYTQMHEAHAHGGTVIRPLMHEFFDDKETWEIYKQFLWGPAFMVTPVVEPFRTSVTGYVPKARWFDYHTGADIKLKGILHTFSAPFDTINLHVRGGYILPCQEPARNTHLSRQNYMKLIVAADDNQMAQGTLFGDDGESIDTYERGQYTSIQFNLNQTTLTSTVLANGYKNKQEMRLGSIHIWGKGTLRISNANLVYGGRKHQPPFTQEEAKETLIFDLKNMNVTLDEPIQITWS

Row | SMILES | IC50 [µM]
1 | C[C@@H]1O[C@@H](O[C@H]2[C@H](O)[C@@H](O)[C@H](OC[C@H]3O[C@@H](OC(=O)[C@]45CCC(C)(C)C[C@H]4C4=CC[C@@H]6[C@@]7(C)CC[C@H](O[C@@H]8OC[C@H](O[C@@H]9O[C@H](CO)[C@@H](O)[C@H](O)[C@H]9O)[C@H](O)[C@H]8O[C@@H]8O[C@@H](C)[C@H](O)[C@@H](O[C@@H]9O[C@H](CO)[C@@H](O)[C@H](O)[C@H]9O)[C@H]8O)C(C)(C)[C@@H]7CC[C@@]6(C)[C@]4(C)CC5)[C@H](O)[C@@H](O)[C@@H]3O)O[C@@H]2CO)[C@H](O)[C@H](O)[C@H]1O [CERNUOSIDE A] | 59.5
2 | C[C@@H]1O[C@@H](O[C@H]2[C@H](O)[C@@H](O)[C@H](OC[C@H]3O[C@@H](OC(=O)[C@]45CCC(C)(C)C[C@H]4C4=CC[C@@H]6[C@@]7(C)CC[C@H](O[C@@H]8OC[C@H](O[C@@H]9O[C@H](CO)[C@@H](O)[C@H](O)[C@H]9O)[C@H](O)[C@H]8O[C@@H]8O[C@@H](C)[C@H](O)[C@@H](O[C@@H]9O[C@H](CO)[C@@H](O)[C@H](O)[C@H]9O)[C@H]8O)[C@@](C)(CO)[C@@H]7CC[C@@]6(C)[C@]4(C)CC5)[C@H](O)[C@@H](O)[C@@H]3O)O[C@@H]2CO)[C@H](O)[C@H](O)[C@H]1O [CERNUOSIDE B] | 45.8
